Some test systems named below: BT-549 breast; HCC-2998 colon; HOP-92 NSCLC; IGROV1 ovarian; NCI-H226 lung; SF-268 CNS; SN12C renal; SNB-75 CNS; UACC-257 melanoma; UO-31 renal.
Common to all, as to test: inhibition of tumour cell growth, NCI panel, 48 h

The structures appear in SMILES notation.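 48-hour exposure; five concentrations; linearly interpolated endpoints. GI50 = concentration required for 50% inhibition of growth. At the TGI there is no net growth.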

`N#C/C(=C\c1ccc[nH]1)c1cc(-c2ccc(Cl)cc2)nn1-c1ccccc1`: the GI50 was 4.72 µM in the assay on BT-549 breast; 3.5 µM in the assay on HCC-2998 colon; 2.54 µM in the assay on HOP-92 NSCLC; 14 µM with IGROV1 ovarian; 7.71 µM in the assay with NCI-H226 lung; 4.05 µM in the assay with SF-268 CNS. Also, the GI50 is 5.87 µM in the assay on SN12C renal, 2.29 µM in the assay on SNB-75 CNS, 10.9 µM in the assay on UACC-257 melanoma and 3.82 µM in the assay with UO-31 renal. The TGI is 15.7 µM in the assay on BT-549 breast; 12.4 µM in the assay with HCC-2998 colon; 10.2 µM in the assay with HOP-92 NSCLC; > 95.4 µM with IGROV1 ovarian; 37.2 µM with NCI-H226 lung; 18.3 µM in the assay with SF-268 CNS. Moreover, the TGI was > 48 µM in the assay on SN12C renal, 16 µM with SNB-75 CNS, 35.8 µM in the assay with UACC-257 melanoma and 31 µM in the assay on UO-31 renal.

On to `OC(c1cc(C(F)(F)F)nc2c(Cl)cc(Cl)cc12)C1CCCCN1` (centres undefined), for which the TGI in the assay on BT-549 breast is 28.2 µM; in the assay with HCC-2998 colon, > 100 µM; in the assay on HOP-92 NSCLC it was 21.9 µM; in the assay with IGROV1 ovarian, 18.2 µM; in the assay on NCI-H226 lung, 35.1 µM; in the assay with SF-268 CNS, > 40.7 µM. Besides, the TGI with SN12C renal was > 39.6 µM; in the assay on SNB-75 CNS, 24.4 µM; in the assay with UACC-257 melanoma it was > 38.8 µM; in the assay with UO-31 renal, 3.22 µM.

As for `CC1Cc2c(Cl)ncnc2N(C)c2ccccc21` (centres undefined), the GI50 in the assay with BT-549 breast was 5 µM; in the assay on HCC-2998 colon it was 3.01 µM; in the assay on HOP-92 NSCLC, 2.34 µM; with IGROV1 ovarian, 3.78 µM; with NCI-H226 lung, 2.05 µM; in the assay with SF-268 CNS it was 2.77 µM. The GI50 was 3.4 µM with SN12C renal, 0.352 µM with SNB-75 CNS, 3.76 µM in the assay on UACC-257 melanoma and 3.37 µM with UO-31 renal. Besides, the TGI was 33.9 µM with BT-549 breast; 10.6 µM in the assay with HCC-2998 colon; 7.17 µM in the assay with HOP-92 NSCLC; > 100 µM with IGROV1 ovarian; 21.7 µM in the assay with NCI-H226 lung; 91.6 µM with SF-268 CNS. Besides, the TGI with SN12C renal stood at 15.5 µM; with SNB-75 CNS, 33.5 µM; in the assay with UACC-257 melanoma, 21 µM; in the assay with UO-31 renal it was 89.1 µM.

With `CC1=CC2(C)/C=C(C)/C=C\CC(O)/C=C3/C=CC(=C4C(=O)OC2(CC1C)C4=O)OC3` (centres undefined), the GI50 in the assay with BT-549 breast was 2.11 µM; in the assay on HCC-2998 colon, 5.78 µM; in the assay on HOP-92 NSCLC, 0.524 µM; in the assay with IGROV1 ovarian, 2.93 µM; with NCI-H226 lung it was 11.8 µM; in the assay on SF-268 CNS, 2.09 µM. Moreover, the GI50 was 1.92 µM with SN12C renal, 2.84 µM in the assay on SNB-75 CNS, 1.82 µM with UACC-257 melanoma and 1.46 µM in the assay with UO-31 renal. Also, the TGI in the assay with BT-549 breast was determined as 4.79 µM; in the assay on HCC-2998 colon, 22.2 µM; with HOP-92 NSCLC, 1.54 µM; with IGROV1 ovarian, 8.93 µM; in the assay on NCI-H226 lung, 47.9 µM; in the assay on SF-268 CNS it was 4.75 µM. Also, the TGI in the assay with SN12C renal was 5.01 µM; in the assay on SNB-75 CNS, 17.3 µM; in the assay on UACC-257 melanoma it was 4.36 µM; in the assay with UO-31 renal it was 3.06 µM.

Turning to `CC1(C)OCC2OC(n3cnc4c(N)nc(Cl)nc43)C(OS(C)(=O)=O)C2O1` (centres undefined), the TGI with BT-549 breast, with HCC-2998 colon, in the assay on HOP-92 NSCLC, in the assay on IGROV1 ovarian, in the assay on NCI-H226 lung and with SF-268 CNS was > 100 µM in each case. Besides, the TGI in the assay with SN12C renal, in the assay with SNB-75 CNS, in the assay on UACC-257 melanoma and with UO-31 renal was > 100 µM each time.

Consider `C=C1C(=O)O[C@@H]2/C=C(/C)[C@@H](OC(C)=O)C[C@@H](O)/C(C)=C\[C@@H](OC(=O)[C@]3(C)O[C@@H]3C)[C@@H]12`, for which the TGI in the assay on BT-549 breast was 18.8 µM; in the assay on HCC-2998 colon, 34.5 µM; with HOP-92 NSCLC, 26.7 µM; in the assay on IGROV1 ovarian, 32.9 µM; in the assay with NCI-H226 lung, > 100 µM; in the assay on SF-268 CNS it was 41.8 µM. Also, the TGI with SN12C renal is 24.7 µM; in the assay with SNB-75 CNS, 37.6 µM; in the assay on UACC-257 melanoma it was 33.2 µM.

On to `Nc1nc2cc(Cl)ccc2n1N`, for which the TGI in the assay on BT-549 breast, with HCC-2998 colon, in the assay with IGROV1 ovarian, in the assay on NCI-H226 lung, in the assay on SF-268 CNS and with SN12C renal was > 100 µM each time. Besides, the TGI in the assay with SNB-75 CNS, in the assay with UACC-257 melanoma and in the assay on UO-31 renal was > 100 µM in each case.

Consider `O=[N+]([O-])c1ccc2c(c1)C(N1CCN(CCO)CC1)Cc1ccc(F)cc1S2` (centres undefined), for which the TGI with BT-549 breast stood at 23.1 µM; in the assay with HCC-2998 colon, 8.83 µM; in the assay with IGROV1 ovarian it was 15.7 µM; in the assay with NCI-H226 lung it was 23.1 µM; with SF-268 CNS, 31.4 µM; in the assay on SN12C renal it was 28.9 µM. Besides, the results for the TGI in the assay on SNB-75 CNS, in the assay with UACC-257 melanoma and with UO-31 renal were 12.4 µM, 7.01 µM and 18.1 µM, respectively.

In the case of `[N-]=[N+]=C(C(=O)CN1CCCC1=O)S(=O)(=O)c1ccccc1`, the TGI in the assay with BT-549 breast, with HCC-2998 colon, in the assay on IGROV1 ovarian, with NCI-H226 lung, in the assay on SF-268 CNS and with SN12C renal was > 100 µM in each case. Further, the TGI in the assay with SNB-75 CNS, with UACC-257 melanoma and with UO-31 renal was > 100 µM in each case.

As to `CC(=O)C1=C(C)N(Cc2ccccc2)C2(O)C=CC(=O)C3=C(O)c4ccccc4C(=O)C312` (centres undefined), the GI50 was 5.88 µM with BT-549 breast; 13 µM in the assay on HCC-2998 colon; 3.73 µM with HOP-92 NSCLC; 6.2 µM with IGROV1 ovarian; 8.12 µM in the assay on NCI-H226 lung; 10.4 µM with SF-268 CNS. For the same compound, the GI50 with SN12C renal is 1.82 µM; in the assay with SNB-75 CNS, 4.88 µM; with UACC-257 melanoma it was 5.77 µM. Besides, the TGI in the assay on BT-549 breast was 19.6 µM; in the assay with HCC-2998 colon it was 36.4 µM; with HOP-92 NSCLC, 7.77 µM; in the assay with IGROV1 ovarian, > 100 µM; with NCI-H226 lung, 22.1 µM; in the assay on SF-268 CNS, 29.1 µM. Besides, the TGI in the assay on SN12C renal worked out at 3.6 µM; in the assay with SNB-75 CNS, 25 µM; in the assay with UACC-257 melanoma, 30.5 µM.

Source of the values: PubChem BioAssay (NCI).
